Source: patent US20250352458A1, “IMPROVEMENTS IN OR RELATING TO EXTRACTS” (Givaudan SA, priority 2020, published 2025)
Several values for one entry are separate records, joined by “and”; a condition that tells them apart may be missing. Equal values may be shown once.

What was measured:
[1] = system: hiPSC derived sebocytes; assay: In vitro lipogenesis inhibition in sebocytes derived from iPS with three ethnicities; format: cell-based, human; conditions: 10 μM (RA10), each ethnicity, arachidonic acid induced
[2] = system: C. granulosum (ATCC 25564); assay: MIC evaluation, optical density and percentage of inhibition; format: cell-based, Cutibacterium granulosum
Text: (§1) The minimum inhibitory concentration of the following active ingredients has been assessed: • Mangifera indica extract (in propanediol/water 75/25); • Vehicule (propanediol/water 75/25, expressed as Activolo3-75%); • “Pool Mangiferin” which is the pure molecule mangiferin at the same concentration in the Mangifera indica extract in propanediol/water 75/25. • “Pool Mangifera” with is the mix of the 4 molecules (mangiferin, maclurin-C-glucoside, irifluophenone-C-glucoside, gallotanin) at the same concentration in the Mangifera indica extract in propane-diol/water 75/25. […] After two days, the bacterial concentration was adjusted in reinforced clostridial broth to obtain a solution at 1.106 CFU/ml (5.104 CFU/well). […] Concentrations are expressed in % (m/v). […] The diluted bacterial suspension was added to columns 2 to 12. RCB medium was added to column 1 as negative control. Optical density was determined, which correlates to the bacterial growth.

[3] = system: H. influenzae (ATCC 49766); assay: as above; format: cell-based, Haemophilus influenza
Text: The minimum inhibitory concentration of the following active ingredients has been assessed: • Mangifera indica extract (in propanediol/water 75/25); • Vehicule (propanediol/water 75/25, expressed as Activolo3-75%); • “Pool Mangiferin” which is the pure molecule mangiferin at the same concentration in the Mangifera indica extract in propanediol/water 75/25. • “Pool Mangifera” with is the mix of the 4 molecules (mangiferin, maclurin-C-glucoside, irifluophenone-C-glucoside, gallotanin) at the same concentration in the Mangifera indica extract in propane-diol/water 75/25.
H. influenzae (ATCC 49766) was cultured in Mueller Hinton broth as recommended by ATCC with 5% CO2. The Bacterial concentration was adjusted in Mueller Hinton broth to obtain a solution at 1.106 CFU/ml (5.104 CFU/well) (launch of culture at D-2). […] Two day later, the inhibition of H. influenzae was evaluated using Colony counter IUL instruments, flash and go model (reading at D2).
Concentrations are expressed in % (m/v).
The diluted bacterial suspension was added to columns 2 to 12. RCB medium was added to column 1 as negative control.
Optical density was determined, which correlates to the bacterial growth. Thereafter, an inhibition value (%) was determined for each condition using the following formula: […]
The percentage of inhibition must be higher or equal than 90% to reach the MIC.

[4] = system: Propionibacterium acnes (C. acnes) phylotype IA1 ATCC 6919; assay: as above; format: cell-based
Text: as §1

[5] = system: S. aureus (ATCC 33592); assay: as above; format: cell-based, Staphylococcus aureus
Text: The minimum inhibitory concentration of the following active ingredients has been assessed: • Mangifera indica extract (in propanediol/water 75/25); • Vehicule (propanediol/water 75/25, expressed as Activolo3-75%); • “Pool Mangiferin” which is the pure molecule mangiferin at the same concentration in the Mangifera indica extract in propanediol/water 75/25. • “Pool Mangifera” with is the mix of the 4 molecules (mangiferin, maclurin-C-glucoside, irifluophenone-C-glucoside, gallotanin) at the same concentration in the Mangifera indica extract in propane-diol/water 75/25. S. aureus: The day before the experiment S. aureus (ATCC 33592) was plated and grown overnight at 37° C. Colonies were resuspended in 5 mL of TSB (Tryptic Soy Broth) to obtain a 0.5 McFarland D O (≈1.10^8 CFU/ml) (launch of culture at D-1). […] Concentrations are expressed in % (m/v). […] The diluted bacterial suspension was added to columns 2 to 12. RCB medium was added to column 1 as negative control. Optical density was determined, which correlates to the bacterial growth.

[6] = system: human sebaceous glands of skin explants; assay: Ex vivo sebum quantification, lipids of sebaceous glands by GC/MS; format: cell-based
Protocol: Skin explants from lifting of 3 donors (average 56.7 years old) were treated in systemic every day during 5 days in presence of dihydrotestosterone (DHT) at 30UM to induce an increase of lipogenesis mimicking a high production of sebum condition (stimulated condition) or left untreated (control condition). In parallel, skin explants were treated in presence of 0.5% of dibenzoyle peroxide (POB, positive reference) or with the Mangifera indica extract at 1% and 2%.
The tissues are extracted with an aqueous cocktail overnight at 4° C. They are then treated to take off the epidermis. A specific technique is used to recover the glands attached to these hair shafts.
After rinsing in an isotonic medium, the epidermis and its appendages are transferred to a watch glass. The sebaceous glands attached to the hair shaft of hair follicles are cut at the level of the pilosebaceous canal and deposited against the walls of the recovery vials. The sebaceous glands are recovered after dilaceration of the epidermal fragments. The glands are collected in a batch of 10 units. A washing of the glands is then performed to eliminate any contaminations of non-sebaceous origin. The sebum is then extracted with an organic cocktail overnight at room temperature. From this lipid extract, purification was carried out in order to isolate the different classes of lipids.
The identification and quantification of the different classes of lipids was realized by GC/MS.
The results are expressed in percent of the stimulated control (Untreated+DHT 30 μM). Bonferroni test multi comparison was used to do statistical analysis with #p<0.1, *p<0.05, **p<0.01, ***p<0.001.

[7] = system: sebaceous glands of skin explants NativeSkin; assay: Ex vivo sebaceous gland 3D volume in skin explants; format: cell-based, human; conditions: linoleic acid at 10% in Carbopol, 7 days, vs control
Protocol: The test was carried out on 4 skin explants NativeSkin® (average 40.75 years old) from pelvic area, a full-thickness skin biopsy embedded in a solid and nourishing matrix while its epidermal surface is left in contact with air. The skin biopsy is firmly embedded in the matrix that prevents any lateral diffusion of topically applied formulations. The skin explants were treated topically once a day for 7 days in presence of linoleic acid at 10% in Carbopol Ultrez 10 in order to stimulate the lipogenesis and mimic the condition of sebum excess (stimulated condition) or treated with Carbopol only (control condition). This induction mimics a high production of sebum. In parallel, skin explants were treated in presence of Mangifera indica extract at 1% and 2% formulated in Carbopol. After treatment, skin explants were fixed in formalin. After fixation, skin explants were cleared with methanol and a mix of Benzyl Benzoate and Benzyl Alcohol. All samples were observed by fluorescence light sheet microscopy (SPIM, homemade fabrication). Stack of images were taken per sample. 3D pictures of the glands were reconstructed and the size of each sebaceous gland was quantified using Amira® software. Results were represented with the mean volume of sebaceous gland +/−standard error to the mean. […] The results are expressed in percent of the stimulated control (10% linoleic acid). […]

[8] = system: human sebocyte cell line SEBO662AR; assay: In vitro lipogenesis inhibition in human sebocytes cell line (Bodipy lipid labeling); format: cell-based
Protocol: The sebocytes were seeded in 96-well plates (50 000 cells/well) and cultured for 24 hours in culture medium. The medium was then removed and replaced by assay medium containing the tested products including Mangifera indica extract at 0.3%, Mangiferin alone or pooled active molecules (four main phytomarkers) at their equivalent dosage in the extract at 0.3%. In the control assay medium, no product was contained. The cells were preincubated for 4 hours at those conditions. Then, the lipogenic mix (containing vitamin C, vitamin D3, insulin and calcium, and no androgens) was added in order to mimic the condition of excess of sebum, and the cells were incubated for 7 days. At mid-term, i.e. after 3 days of incubation, half of the medium was removed and the treatments were renewed (including lipogenic mix stimulation). […]
At the end of the incubation, the cells were rinsed, fixed and permeabilized. […] The labeling was quantified by the measurement of the fluorescence intensity normalized to the total number of cells (Integration of numerical data with the Developer Toolbox 1.5, GE Healthcare software). Results were expressed as Fluorescence intensity normalized to the number of cells, % stimulated control and % inhibition. The fluorescence intensity was analyzed exclusively in the lipid droplets (image analysis program based on object segmentation). […]

[9] = Ciprofloxacin 16 10^−4 % (m/v), plate col. 8-12
[10] = DHT 30 μM stimulation vs untreated
[11] = POB at 0.5%, DHT stimulated, 5 days

CC1=C(/C=C/C(C)=C/C=C/C(C)=C\C(=O)O)C(C)(C)CCC1 [13-cis-retinoic-acid]
lipids production [1]: significant reduction

O=C(O)c1cn(C2CC2)c2cc(N3CCNCC3)c(F)cc2c1=O [Ciprofloxacin, reference compound]
Percentage of inhibition, C. granulosum [2, 9]: 97.8% and 99.0% and 98.5%
inhibition of C. granulosum ([2]; Ciprofloxacin, text of Table 4b): 99%
Percentage of inhibition, H. influenza [3, 9]: 99.7% and 99.0%
inhibition of H. influenza ([3]; Ciprofloxacin, text of Table 6b): 99%
Percentage of inhibition, C. acnes [4, 9]: 99.3% and 98.8%
inhibition of P. acnes (FIG. 9) ([4]; Ciprofloxacin from 1×10^−4%): 99%
inhibition of P. acnes ([4]; Ciprofloxacin, text of Table 3b): 99%
Percentage of inhibition, S. aureus [5, 9]: 99.4%
inhibition of S. aureus ([5]; Ciprofloxacin, text of Table 5b): 99%

C[C@]12CCC(=O)C[C@@H]1CC[C@@H]1[C@@H]2CC[C@]2(C)[C@@H](O)CC[C@@H]12 [DHT, dihydrotestosterone]
cholesterol content of sebum [6, 10]: no effect
free fatty acids content of sebum [6, 10]: significant increase
squalene content of sebum [6, 10]: significant increase
triglycerides content of sebum [6, 10]: significant increase

CCCCC/C=C\C/C=C\CCCCCCCC(=O)O [Linoleic acid, linoleic acid]
change of 3D volume of sebaceous glands [7]: +37%

O=c1c2cc(O)c(O)cc2oc2cc(O)c([C@@H]3O[C@H](CO)[C@@H](O)[C@H](O)[C@H]3O)c(O)c12 [Mangiferin]
reduction of lipogenesis compared with lipogenic mix condition ([8]; Mangiferin at the same amount as available in the extracts): −22%

CCCCCCCCCCCCCCOc1ccc(C(=O)OCC(=O)N(C)CC(=O)OCC)o1 [Olumacostat glasaretil, reference compound]
reduction of lipid production compared with lipogenic mix condition ([8]; Olumacostat glasaretyl at 1 μm, 7 days): −37%

O=C(OOC(=O)c1ccccc1)c1ccccc1 [POB, dibenzoyle peroxide]
free fatty acids content of sebum [6, 11]: significant reduction
squalene content of sebum [6, 11]: significant reduction
triglycerides content of sebum [6, 11]: significant reduction
